Assay results from US20150320836A1, “CRYOPRESERVATION OF CELLS INSIDE A MACRO-ENCAPSULATION DEVICE” (The Regents of the University of California, priority 2012, published 2015).
Where two headings read alike, the source gives them in different places.

Key:
[1] = tested on: human Ins-G cells; assay type: cell-based
Description: The sensitivity of dissociated human Ins-G cells to DMSO without cryopreservation (CP) was investigated. […] Temperatures ranging from 0° C. to 37° C. were investigated. Regardless, cell viability was practically indistinguishable from control cells not exposed to DMSO (FIG. 1A, column #1).
In prior studies with a macro-encapsulation device, we loaded cells into devices immediately prior to transplantation. Thus, until now we have not exposed encapsulated cells to CPA, yet the ability to freeze preloaded devices would ensure reproducibility between experiments and among users. The process of loading cells into the device requires approximately 20 min; beginning when cells are drawn up into a Hamilton syringe and slowly dispensed into the device, and ending when the syringe has been removed from the device port and the port has been sealed. We hypothesized therefore, that cells must withstand pre-freeze exposure to CPA for 20 minutes in order to be successfully cryopreserved in devices. […]
(§1) Cells cultured as monolayers were dissociated with Accutase, pelleted, and resuspended with either normal culture media (CM) as a positive control for cell viability or with the Freeze Medium (FM) containing 10% DMSO. […] Following incubation time, cells were allowed to reattach to tissue culture plates for 24 hours and then assessed for attachment and viability. […]

[2] = tested on: human Ins-G cells; assay: Freezing dissociated Ins-G cells after pre-freeze incubation with DMSO; assay type: cell-based
Description: The effects of preincubation with DMSO on freeze/thaw viability were investigated. Freezing dissociated cells pre-exposed to Freeze Media containing 10% DMSO (FIG. 1B) also had no effect on cryosurvival, which per se was exceptionally good (up to 77-79% to control). In order to verify requirement for cryoprotective agents (CPA) in freezing, a sample was frozen in culture media (no DMSO). As expected, survival was very poor (11% in comparison to the positive control). […] Without being bound to theory, a possible explanation is that cell mortality resulted from slow (suboptimal) freezing injury, when cells are frozen at the rate substantially slower than the equilibrium “Mazur's rate” when the cells are just in equilibrium with freezing outer milieu. The suboptimal rates in the inverted U curve usually contributed to the effects of highly concentrated solutes rather than immediate cell destruction and fast necrosis associated with the supra-optimal (fast freezing, according to the 2-factor hypothesis developed by Mazur (Mazur et al. (1972) Experimental Cell Res., 71:345-349; Mazur et al. (2008) Biol Reprod, 78:2-12). The cell membrane rupture and other colligative osmotic damage due to excessive shrinkage and swelling usually manifest quickly as the loss of selective permeability properties so the cells become permeable to large particle dyes such Trypan Blue, soon after the treatment. The osmotic damage usually decreases with the temperature and step-wise addition and dilution (which, in fact, exposes the cells to CPA longer than an abrupt one-step addition or dilution). In contrast, a long exposure to a CPA or/and to very concentrated solutions of the cryoprotectant can manifest later in the form of, e.g., death due to specific chemical toxicity, particularly on membrane and epigenetic level as it may affect protein folding and membrane lipid bilayers, as it is shown for some types of cells (see, for example (Katkov II et al. (2006) Cryobiology, 53:194-205) for references. In contrast to osmotic damage, chemical toxicity usually exacerbates at longer exposure at higher temperature, and the prevalence of one mode vs. another can be easily differentiate by treating cells with higher temperatures and/or for longer exposure to the CPA (Katkov II (2011) Cryobiology, 62:242-4; Katkov II et al. (1998) Cryobiology, 37:325-38; Katkov II et al. (2007) Cryo Letters, 28:409-27).
as §1

[3] = tested on: islet like cell clusters (ICCs) of human Ins-G cells; assay: Freezing ICCs: pre-freeze DMSO exposure and centrifugation; assay type: cell-based
Description: To more closely mimic the morphological structure of pancreatic islets, cells cultured as 3-dimensional ICCs were investigated. The first technical question was how to harvest clusters, whether by gentle (200 g×5 min) centrifugation or by settling by gravitational force (1 g). Here prefreeze exposure of the clusters to 10% DMSO at room temperature and +37° C. before freezing was investigated.
Two negative controls were employed. First (sample 1 on FIG. 2) were non-frozen clusters but the cells were exposed to 10% of DMSO for 20 min at +37° C. and centrifuged (200 g×5 min) The second control (Column #2) were cells that were not exposed top DMSO and frozen w/o it, with the same other procedures that in the first control. […] Apparently, some clusters were lost because they had not settled to the bottom of the tube either due to sub-optimal time or length of column 15-mL tube (Katkov II et al. (1999) Cell Biochem Biophys, 31:231-45). Cell clusters, it was observed, are more sensitive than dissociated cells from monolayer cultures even before and freezing (viability after thawing for the re-attached cells was in range of 61-72%, which was substantially lower than in monolayers (Experiment 2, FIG. 2). Thus, natural sedimentation was used with an increased time and decreased column length by using 50-mL conical tubes instead for the next experiments. […]

[4] = tested on: islet like cell clusters (ICCs) of human Ins-G cells; assay type: cell-based; details: for viable yield: human
Description: While the level of DMSO will gradually decrease during elution, the extreme point was tested and the same high level of DMSO was maintained for the longevity of the entire exposure.
Increase of temperature of elution will shorten the time of elution but DMSO might cause increased toxicity at increased temperature. Driven by this dilemma, extreme treatments of post-thawed clusters were checked starting with immediate washing of DMSO, maintaining them for 20 min on 4° C. before washing, at 25° C. for 10 and 20 min and at +37° C. at 10 and 20 min (Experiment 3, FIG. 3A). […] There was one exception however, the cells incubated at room temperature for 20 minutes performed slightly poorer than the other treatments. […] This phenomenon was observed over a large number of experiments (N=6), but its basis is unclear. […] Further experiments would be needed to determine with certainty that RT is actually more detrimental than +37° C. or ice. The surviving cells retain insulin expressing capacity for all treatments (FIG. 3B).
Ultimately, the ability to freeze cell clusters inside an encapsulation device may require that the cells survive the time required to remove CPA upon thawing. Normally, when (unencapsulated) cells are thawed, CPA is removed quickly, either by centrifugation or by extensive dilution into culture media. However, for a cell-filled device, CPA removal will be accomplished via diffusion of CPA out of device into a large volume of wash media, until equilibration is reached. We estimated that approximately 20 minutes will be required to reach equilibrium, during which time cells are exposed to CPA. We therefore first examined the effects of post-thaw exposure to CPA in unencapsulated ICCs. Because equilibrium is also temperature dependent, we exposed thawed ICCs to CPA at 25° C. or 37° C. As we can see from FIG. 3A, sample 1, a control which was not exposed to CPA or frozen, reattachment of ICCs to tissue culture plates is 48%, lower than reattachment of dissociated cells (FIG. 1, sample 1). […]

[5] = tested on: insulin-GFP transgene in human Ins-G ICCs; assay: Insulin-GFP expression after freezing ICCs and post-thaw DMSO exposure; assay type: cell-based; details: frozen, post-thaw DMSO 20 minutes at 37° C.
Description: In addition to survival, it is important that ICCs retain insulin gene expression during these manipulations. Human Ins-G cells express endogenous insulin message in response to tamoxifen (which activates the transcription factor […] by promoting translocation from the cytoplasm to the nucleus). The cells were also engineered to express GFP from an insulin transgene. Therefore, GFP expression in response to tamoxifen is a surrogate for insulin expression. We examined GFP expression in control ICCs (not frozen, not exposed to DMSO) as well as in cells frozen and exposed to DMSO for 20 minutes at 37° C. (FIG. 3B).

[6] = tested on: islet like cell clusters (ICCs) of human Ins-G cells; assay: ICCs loaded or frozen in TheraCyte encapsulation device; assay type: cell-based; details: frozen in TheraCyte device in 10% DMSO freezing medium
Description: Observing that the clusters can be exposed to DMSO both before freezing and after thawing when the cells were frozen in cryovials, cells were then frozen in the TheraCyte™ device (FIGS. 4A-C). Cells were exposed to DMSO during loading into the device. The port was then trimmed so that the device could fit a 1.5 mL cryovial which also contained 10-% DMSO freezing medium and froze them. After the vial was thawed, DMSO was eluted by placing the device in gently swirling medium solution (using magnetic stir bar). Without being limited by theory, this treatment may be sufficient to wash out the majority of DMSO before transplantation. Moreover this procedure mimics slow elution if the device is transplanted immediately after thawing, as a low concentration of DMSO is presumed to be non-toxic even for small animals. […] Barely 1/10 of loaded cells survived the whole procedure (including cutting device in pieces and placing into the dish, washing that out in 48 hrs, etc. (Experiment 4, FIG. 5). There can be several explanations for the cell loss, such as following.
We next addressed the effects of freezing ICCs inside the encapsulation device. As a control for freezing, ICCs resuspended in FM were loaded into devices which were sealed and then immediately opened and cells removed. Cell attachment following release from device averaged 64% and of the attached cells, 59% were viable. […]

[7] = tested on: hESCs; assay: Exposure of dissociated hESCs to cryoprotective agent; assay type: cell-based, human; details: 10% DMSO 10 or 30 min, 4° C. or 37° C., no freezing
Description: hESCs are cultured as monolayers and are dissociated with Accutase, pelleted, and resuspended with either normal culture media (CM) as a positive control for cell viability or with the Freeze Medium (FM) containing 10% DMSO. Cells are either plated immediately in CM or incubated in FM for up to 30 minutes. Following incubation time, cells are allowed to reattach to tissue culture plates for 24 hours and then assessed for attachment and viability. DMSO concentration, freezing time, and freezing temperature, for example, may be varied to obtain best results for a given culture. […] As a result, the Viable Yield (the product of Attachment and Viability) is also similar among the 4 incubation conditions. Thus, exposure to DMSO without freezing produces a minimal effect on survival of dissociated cells monolayer cultures.

[8] = pre-freeze 10% DMSO 10 or 30 min, +4° C. or +37° C.

C[S+](C)[O-] [DMSO, dimethyl sulfoxide]
tolerance of exposure to 10% DMSO [1]: well tolerated
Viable Yield (product of Attachment and Viability) ([1]; human, 10 %): 63-73%
cryosurvival relative to control ([2]; frozen in Freeze Media with 10% DMSO after pre-exposure): 77-79%
Attachment efficiency after freezing [2, 8]: 73-77%
Viable Yield after freezing [2, 8]: 63-73%
viability of re-attached cells after freezing [2, 8]: 86-92%
viability after thawing of re-attached cells ([3]; ICCs frozen after pre-freeze 10% DMSO exposure): 61-72%
viable yield ([3]; clusters exposed to 10% DMSO at +37° C. for 20 min, centrifuged 200 g×5 min): 31%
tolerance of post-thaw exposure to DMSO [4]: well tolerated
viable yield [4]: 35-38%
viable yield ([4]; 20 min): 21%
GFP expression versus control ICCs [5]: no significant difference
fraction of loaded cells surviving the whole procedure [6]: 1/10
survival [7]: ≥ 80%
